Assay results from PMC4816213 (Bioorganic & medicinal chemistry letters, 2015).

Columns and labels:
DOR = DOR (Homo sapiens, UniProt P41143); experiment: biochemical
NOP = NOP (Homo sapiens, UniProt P41146); experiment: biochemical
β3 = β3 (Homo sapiens, UniProt P13945); experiment: biochemical
D5 = D5 (Homo sapiens, UniProt P21918); experiment: biochemical
DAT = DAT (Homo sapiens, UniProt Q01959); experiment: biochemical
HERG = HERG (Homo sapiens, UniProt Q12809); experiment: biochemical
β1 = β1 (Homo sapiens, UniProt P08588); experiment: biochemical
PBR = experiment: radioligand competition binding
Sigma2 = experiment: radioligand competition binding
Sigma1 = experiment: radioligand competition binding

D5, sequence (P21918 whole entry): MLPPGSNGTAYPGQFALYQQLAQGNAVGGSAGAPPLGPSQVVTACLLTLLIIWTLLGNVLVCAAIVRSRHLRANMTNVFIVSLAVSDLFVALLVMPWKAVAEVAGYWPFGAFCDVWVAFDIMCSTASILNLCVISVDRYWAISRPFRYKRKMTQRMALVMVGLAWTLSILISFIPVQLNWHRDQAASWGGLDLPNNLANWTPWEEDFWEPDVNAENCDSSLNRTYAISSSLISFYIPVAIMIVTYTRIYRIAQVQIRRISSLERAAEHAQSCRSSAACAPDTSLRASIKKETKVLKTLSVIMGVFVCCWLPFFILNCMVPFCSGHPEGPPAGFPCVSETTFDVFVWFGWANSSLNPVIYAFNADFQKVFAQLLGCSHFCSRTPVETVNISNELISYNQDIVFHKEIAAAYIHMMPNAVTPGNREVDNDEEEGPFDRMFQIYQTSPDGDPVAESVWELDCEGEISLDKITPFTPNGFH
DOR, sequence (P41143 whole entry): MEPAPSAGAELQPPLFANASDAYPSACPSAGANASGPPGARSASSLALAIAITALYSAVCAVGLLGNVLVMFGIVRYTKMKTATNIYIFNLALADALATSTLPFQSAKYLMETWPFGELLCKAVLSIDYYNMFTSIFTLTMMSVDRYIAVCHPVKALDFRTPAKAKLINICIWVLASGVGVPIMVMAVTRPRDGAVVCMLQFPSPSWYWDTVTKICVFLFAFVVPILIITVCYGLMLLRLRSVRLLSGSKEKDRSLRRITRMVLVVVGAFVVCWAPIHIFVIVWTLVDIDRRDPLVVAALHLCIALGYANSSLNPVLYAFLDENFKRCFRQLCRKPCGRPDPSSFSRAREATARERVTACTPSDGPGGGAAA
HERG, sequence (Q12809 whole entry): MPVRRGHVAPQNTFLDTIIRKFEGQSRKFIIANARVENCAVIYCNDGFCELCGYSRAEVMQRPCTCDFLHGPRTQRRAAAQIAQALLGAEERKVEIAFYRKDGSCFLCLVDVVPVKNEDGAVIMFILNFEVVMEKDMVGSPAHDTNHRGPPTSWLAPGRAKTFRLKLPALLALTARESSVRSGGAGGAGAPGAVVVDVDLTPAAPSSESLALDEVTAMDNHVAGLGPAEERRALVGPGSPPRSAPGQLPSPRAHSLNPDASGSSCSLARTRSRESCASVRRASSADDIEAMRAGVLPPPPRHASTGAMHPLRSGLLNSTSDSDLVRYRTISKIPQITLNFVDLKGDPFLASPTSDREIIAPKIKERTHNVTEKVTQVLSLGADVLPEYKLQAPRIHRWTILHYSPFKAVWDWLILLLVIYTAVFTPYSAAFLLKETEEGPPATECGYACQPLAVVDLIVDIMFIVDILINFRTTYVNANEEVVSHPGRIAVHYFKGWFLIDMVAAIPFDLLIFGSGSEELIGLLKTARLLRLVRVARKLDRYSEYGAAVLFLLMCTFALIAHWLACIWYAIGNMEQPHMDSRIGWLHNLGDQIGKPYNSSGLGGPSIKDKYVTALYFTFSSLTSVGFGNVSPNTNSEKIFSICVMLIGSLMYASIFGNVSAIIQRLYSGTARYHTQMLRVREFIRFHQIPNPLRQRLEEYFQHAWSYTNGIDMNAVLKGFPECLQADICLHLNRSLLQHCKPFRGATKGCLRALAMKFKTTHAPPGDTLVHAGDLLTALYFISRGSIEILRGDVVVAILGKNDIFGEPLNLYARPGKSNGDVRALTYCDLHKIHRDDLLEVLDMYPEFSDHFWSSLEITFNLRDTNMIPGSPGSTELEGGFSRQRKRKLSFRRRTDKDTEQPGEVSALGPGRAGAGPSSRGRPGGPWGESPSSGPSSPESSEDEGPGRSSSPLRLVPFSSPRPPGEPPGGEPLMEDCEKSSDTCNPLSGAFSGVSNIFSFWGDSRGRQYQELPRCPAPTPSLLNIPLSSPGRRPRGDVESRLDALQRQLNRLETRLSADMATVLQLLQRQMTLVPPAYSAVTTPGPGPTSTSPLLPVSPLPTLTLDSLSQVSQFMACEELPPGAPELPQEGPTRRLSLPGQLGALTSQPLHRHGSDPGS
DAT, sequence (Q01959 whole entry): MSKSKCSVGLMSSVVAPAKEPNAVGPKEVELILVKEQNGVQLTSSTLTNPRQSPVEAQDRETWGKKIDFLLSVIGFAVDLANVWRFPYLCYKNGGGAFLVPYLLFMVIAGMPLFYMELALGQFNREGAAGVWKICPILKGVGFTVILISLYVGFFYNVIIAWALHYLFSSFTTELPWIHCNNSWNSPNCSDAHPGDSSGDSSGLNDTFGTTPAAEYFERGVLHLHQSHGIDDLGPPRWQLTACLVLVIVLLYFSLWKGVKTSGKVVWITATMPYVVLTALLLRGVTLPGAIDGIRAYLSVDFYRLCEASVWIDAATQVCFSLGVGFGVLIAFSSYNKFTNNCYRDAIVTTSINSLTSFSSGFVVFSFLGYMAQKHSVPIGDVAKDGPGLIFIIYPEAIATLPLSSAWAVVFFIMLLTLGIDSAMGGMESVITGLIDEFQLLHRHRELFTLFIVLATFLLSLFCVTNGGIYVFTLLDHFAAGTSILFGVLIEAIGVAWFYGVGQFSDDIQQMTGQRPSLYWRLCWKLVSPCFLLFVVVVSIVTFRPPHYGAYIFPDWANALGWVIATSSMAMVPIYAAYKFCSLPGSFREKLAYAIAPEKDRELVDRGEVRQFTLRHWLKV
NOP, sequence (P41146 whole entry): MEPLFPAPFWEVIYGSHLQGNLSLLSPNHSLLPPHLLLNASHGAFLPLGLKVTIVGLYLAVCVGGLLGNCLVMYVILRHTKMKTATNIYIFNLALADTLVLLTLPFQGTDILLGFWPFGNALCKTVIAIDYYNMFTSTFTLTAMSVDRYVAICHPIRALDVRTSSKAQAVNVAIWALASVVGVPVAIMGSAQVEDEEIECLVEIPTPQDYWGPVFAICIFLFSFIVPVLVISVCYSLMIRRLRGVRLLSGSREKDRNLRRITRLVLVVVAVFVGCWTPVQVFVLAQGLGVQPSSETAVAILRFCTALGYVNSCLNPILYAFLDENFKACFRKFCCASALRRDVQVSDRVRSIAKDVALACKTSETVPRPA
β3, sequence (P13945 whole entry): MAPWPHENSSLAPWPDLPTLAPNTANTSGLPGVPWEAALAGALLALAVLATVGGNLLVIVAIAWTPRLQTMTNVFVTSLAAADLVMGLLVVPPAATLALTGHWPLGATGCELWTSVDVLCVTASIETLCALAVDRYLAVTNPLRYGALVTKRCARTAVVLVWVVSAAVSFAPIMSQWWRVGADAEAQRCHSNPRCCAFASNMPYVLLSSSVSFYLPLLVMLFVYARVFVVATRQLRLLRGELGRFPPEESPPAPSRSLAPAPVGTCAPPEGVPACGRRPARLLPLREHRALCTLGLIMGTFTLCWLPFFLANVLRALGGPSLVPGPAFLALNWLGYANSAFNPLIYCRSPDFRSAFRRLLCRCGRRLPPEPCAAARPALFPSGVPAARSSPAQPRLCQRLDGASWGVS
β1, sequence (P08588 whole entry): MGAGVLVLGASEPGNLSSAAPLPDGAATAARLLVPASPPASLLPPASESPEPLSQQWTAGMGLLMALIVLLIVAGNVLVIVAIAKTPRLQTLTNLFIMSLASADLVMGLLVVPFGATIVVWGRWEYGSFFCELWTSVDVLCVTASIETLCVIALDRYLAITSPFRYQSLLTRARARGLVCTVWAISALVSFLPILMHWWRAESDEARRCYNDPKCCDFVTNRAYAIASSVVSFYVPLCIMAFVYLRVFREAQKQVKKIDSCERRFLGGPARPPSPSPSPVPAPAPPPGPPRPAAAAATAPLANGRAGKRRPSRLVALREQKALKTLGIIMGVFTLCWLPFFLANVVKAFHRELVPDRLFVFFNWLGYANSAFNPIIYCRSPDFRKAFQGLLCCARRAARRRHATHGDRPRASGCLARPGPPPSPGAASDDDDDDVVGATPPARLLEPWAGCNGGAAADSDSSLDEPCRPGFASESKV

Structure (SMILES): COc1cc(CCNCc2ccccc2OCCF)c(OC)cc1Br [compound 1, 2-(4-bromo-2,5-dimethoxyphenyl)-N-(2-(2-fluoroethoxy)benzyl)ethanamine]
- Ki (DOR): > 10 µM
- Ki (NOP): > 10 µM
- Ki (β3): > 10 µM
- Ki (D5): > 10 µM
- Ki (DAT): > 10 µM
- Ki (HERG): > 10 µM
- Ki (β1): > 10 µM
- Ki (PBR): 0.876 µM
- Ki (Sigma2): 0.051 µM
- Ki (Sigma1): 0.499 µM
